The results in this text go back to patent US4859663A, “Multiply substituted pyridine 1-oxide compounds which are useful in treating brain disorders” (Hoechst Aktiengesellschaft, priority 1985, dated 1989).

Where two headings read alike, the source gives them in different places.

A word on the LD50: it is the dose at which mortality reaches 50%. Low values mean a more toxic substance, high ones a less toxic substance. As a reminder, the minimal effective dose is the smallest amount tested that counted as effective.

For one series, the system named is anesthetized male rats. The series is described as follows: EEG hypoxia-tolerance test (antihypoxic / cerebroprotective action). Conditions: ip, read-out: % change in the EEG-RL (EEG hypoxia recovery latency period); for change in vivo at 25 mg/kg: 25 mg/kg i.p. It counts as in vivo, rat.
The next series is described as follows: Acute toxicity (LD50). Conditions: in vivo, mouse, mortality within 7 days. An excerpt: 2. Acute toxicity The standard method for the determination of the LD50 values or LD50 ranges via the mortality occurring in Naval Medical Research Institute mice within 7 days after a single intravenous (i.v.), intraperitoneal (i.p.) or oral (p.o.) administration was used.

For series [1], the system named is naive mice of the male sex. The experiment in a line: Scopolamine-induced retrograde amnesia in the passive avoidance test. It counts as in vivo, mouse. The conditions noted are these: for minimal effective dose: read-out: minimal effective dose (MED) countering scopolamine. The method, then:
(a) Effect on the scopolamine-induced retrograde amnesia in the passive avoidance test
The test arrangement comprises a light/dark box with an electrifiable mesh floor in the dark section. 90 minutes after administration of placebo and product, naive mice of the male sex are treated subcutaneously with scopolamine hydrobromide (3 mg/kg). The mice are placed in the light section of the box 5 minutes later. After transferring into the dark section they receive there an electric shock to the feet which produces an unpleasant sensation. 24 hours thereafter, each mouse is placed once in the light section of the test apparatus, and the residence time (max. 180 seconds) is measured. […] The significant action of a test substance is calculated, using a median test, by comparison with the control group. The minimal effective dose (MED) of a product is regarded as that which results in a significant action countering scopolamine.

The next series concerns rat. The experiment in a line: Gamma-butyrolactone test on the rat (EEG). The series is classed as in vivo. From the text:
(b) Gamma-butyrolactone test on the rat
It is known from the literature (L.I. Wolfson et al., J. Neurochem. 29, 777 (1977)) that gamma-butyrolactone (GBL), inter alia, induces metabolic disturbances in the brain which can be followed by changes in the EEG. The compounds of the formula I are able to antagonize this action of GBL on the EEG.

[2] abbreviates: rat, 15 minutes before hypoxia, n = 8, vs untreated control, shortening (negative) = protective.
Where [3] appears, read: rat, 50 mg/kg i.p., 15 minutes before hypoxia, n = 8, vs untreated control, shortening (negative) = protective.

Experimental for anesthetized male rats: The compounds according to the invention were tested for a cerebroprotective action towards damage caused by hypoxia by means of the EEG hypoxia-tolerance test (EEG: Electroencephalogram) comparing with the most important representatives of types of compounds which belong to the state of the art. In this method, anesthetized male rats with implanted EEG electrodes are subjected to progressive hypoxia by passing nitrogen into a chamber. […] The criterion used for assessment of an antihypoxic action is the EEG hypoxia recovery latency period (EEG-RL), which is defined as the time from the opening of the chamber after onset of EEG silence until the first signals appear again. […] The compounds according to the invention were administered intraperitoneally 15 minutes before the start of hypoxia. The group size was n =8.

Take `c1ccc(Oc2cccnc2)cc1` [3-Phenoxypyridine, reference compound]: the change in vivo at 25 mg/kg in the series with anesthetized male rats (setting [2]) is -14%. Moreover, the LD50 at 168 h in “Acute toxicity (LD50)” (po, single p.o. administration) fell in the range of 400 to 630 mg/kg.
Turning to `Cc1cc(N2CCCC2)c(C#N)c(C)[n+]1[O-]` [Example 13], the change in vivo at 50 mg/kg in the series on anesthetized male rats (setting [3]) was -32%. The 50% lethal dose (LD50) at 168 h in “Acute toxicity (LD50)” (iv, single i.v. administration) came to 200 mg/kg.
Taken in the same sequence, the figures for `Cc1cc(N2CCCCC2)c(C#N)c(C)[n+]1[O-]` [Example 14] were -44% and 100 to 200 mg/kg.
As to `Cc1cc(N2CCOCC2)c([N+](=O)[O-])c(C)[n+]1[O-]` [Example 5, 2,6-Dimethyl-4-(4-morpholinyl)-3-nitropyridine 1-oxide], the change in vivo at 25 mg/kg in the series with anesthetized male rats (setting [2]) is -16%. Further, in “Acute toxicity (LD50)” (iv, single i.v. administration), the LD50 at 168 h is greater than 200 mg/kg.
As for `COC(=O)c1c(C)nc(C)c(C#N)c1-c1ccccc1[N+](=O)[O-]` [Methyl 3-cyano-2,6-dimethyl-4-(2-nitrophenyl)pyridine-5-carboxylate, reference compound], the change in vivo at 50 mg/kg with anesthetized male rats (setting [3]) was 16%. Also, the LD50 at 168 h in “Acute toxicity (LD50)” (iv, single i.v. administration) was in the range of 50 to 100 mg/kg.
In the case of `Cc1cc(N2CCCCCC2)c(C#N)c(C)[n+]1[O-]` [Example 22], the change in vivo at 25 mg/kg in the series on anesthetized male rats (setting [2]) was -38%. Further, in “Acute toxicity (LD50)” (iv, single i.v. administration), the LD50 at 168 h was 50 to 100 mg/kg.
`NC(=O)CN1CCCC1=O` [piracetam, 2-oxo-1-pyrrolidineacetamide, reference compound]: the minimal effective dose in series [1] (Mus musculus, po) worked out at 100 mg/kg.
For the compound `Cc1cc(N2CCSCC2)c(C#N)c(C)n1` [3-Cyano-2,6-dimethyl-4-(4-thiomorpholinyl)pyridine, reference compound], the LD50 at 168 h in “Acute toxicity (LD50)” (ip, single i.p. administration) lay within 150 to 300 mg/kg.
Consider `Cc1cc(N2CCSCC2)c(C#N)c(C)[n+]1[O-].Cl` [Example 1, 3-Cyano-2,6-dimethyl-4-(4-thiomorpholinyl)pyridine 1-oxide hydrochloride], for which, in series [1] (mouse, oral, 90 minutes before scopolamine 3 mg/kg s.c.), the minimal effective dose is 25 mg/kg. Besides, the “effectiveness relative to piracetam (from MED)” value in series [1] (mouse, oral, passive avoidance) is on record as “four times as effective as piracetam”. For the same compound, the change in vivo at 25 mg/kg in the series on anesthetized male rats (setting [2]) is -50%. For the same compound, the LD50 at 168 h stood at 135 mg/kg in “Acute toxicity (LD50)” (iv, single i.v. administration) and 1190 mg/kg in “Acute toxicity (LD50)” (po, single p.o. administration). Moreover, the “protective action against GBL-induced EEG changes” value with rat (100 and 200 mg/kg i.p.) is listed as “strong, dose-dependent protective action”. In addition, the “protective action against GBL compared with piracetam” value in the series with rat (i.p.) is on record as “far exceeded that of the comparison product piracetam”.
Turning to `Cc1cc(N2CCN(c3ccc(F)cc3)CC2)c([N+](=O)[O-])c(C)[n+]1[O-]` [Example 26], the change in vivo at 25 mg/kg in the series on anesthetized male rats (setting [2]) is -27%. In the series “Acute toxicity (LD50)” (iv, single i.v. administration), this compound showed an LD50 at 168 h of 200 mg/kg.
Regarding `Cc1cc(N2CCCNCC2)c([N+](=O)[O-])c(C)[n+]1[O-]` [Example 11], in the series on anesthetized male rats (Rattus norvegicus), the change in vivo at 50 mg/kg is -23%. The LD50 at 168 h in the series “Acute toxicity (LD50)” (iv, single i.v. administration) came to 200 mg/kg.
For `Cc1cc(N2CCCCC2)c([N+](=O)[O-])c(C)[n+]1[O-]` [Example 28], the change in vivo at 25 mg/kg with anesthetized male rats (setting [2]) is -12%. In addition, the LD50 at 168 h in “Acute toxicity (LD50)” (iv, single i.v. administration) was in the range of 100 to 200 mg/kg.
